The source of these data is patent EP4644383A1 (Jiangsu Yahong Meditech Co., Ltd., priority 2022, dated 2024).

Holding throughout (format): biochemical
One experiment has as its target T1, FGFR2 (Homo sapiens, UniProt P21802).
T1 construct: FGFR2's cytoplasmic domain [399-821 (terminal) amino acids]; purchased Carna 08-134
In words: FGFR2 kinase activity inhibition assay (LanthaScreen TR-FRET). The conditions noted are these: FGFR2 kinase, TR-FRET; read-out: IC50 (nM) FGFR2. As for the experimental part:
(§1) FGFR1 kinase activity was measured using Invitrogen LanthaScreen™ assay technology, which utilized fluorescently-labeled peptides and terbium-labeled antibodies to directly measure an amount of the phosphorylated substrate through time-resolved fluorescence energy transfer (TR-FRET). • ① The test compounds were diluted: starting from a concentration of 1 µM, with a buffer solution in a three-fold serial dilution, the buffer solution being composed of 50 mM HEPES, 10 mM MgCl2, 0.01% TritonX-100, 0.01% BSA, 4 mM DTT (pH 7.5), and 1% DMSO; • ② 0.01 nM recombinant human GST fusion protein FGFR1's cytoplasmic domain [398-822 (terminal) amino acids] (Carna: 08-133) was formulated into a 2 × solution, mixed well with the test compounds, and incubated at 23°C for 10 minutes; • ③ 28 nM Fluorescein-Poly GT peptide substrate (Life Technologies: PV3611) and 28 µM ATP were formulated into a 2 × solution, mixed well with the test compounds and enzyme in ②, and incubated at 23°C for 30 minutes; • ④ 10 µL of 2nM Tb-PY20 antibody (Life Technologies: PV3552) and 10 mM EDTA were added to quench the kinase reaction, and incubated at 22°C for 60 minutes. • ⑤ The reaction was measured using a PerkinElmer EnVision multimode plate reader through TR-FRET dual wavelength detection. • 1. The RFU values were copied from the Envision program. • 2. The ratio of RFU 520nm/RFU 495nm was calculated. • 3. The value of the ratio was converted to a percentage inhibition value. % Inhibition = (max-data)/(max-min) × 100 [formula]
(§2) "Min" represents the ratio of the control without enzyme, "max" represents the ratio of the DMSO control, and "data" represents the ratio of the compounds in wells with different concentrations.
(§3) "Top" refers to the maximum response, "Bottom" refers to the minimum response, and "HillSlope" refers to the slope of the curve.
According to the same method as that in the FGFR1 kinase activity inhibition assay, the inhibitory activities against FGFR2, FGFR3 and FGFR4 were tested using FGFR2's cytoplasmic domain [399-821 (terminal) amino acids] (Carna: 08-134), FGFR3's cytoplasmic domain [436-806 (terminal) amino acids] (Carna: 08-135) and FGFR4's cytoplasmic domain [460-802 (terminal) amino acids] (Carna: 08-136), respectively. […]
A general note: Time-resolved FRET reads energy transfer from a long-lived donor to a nearby acceptor.

The target in another experiment is T2, FGFR4 (Homo sapiens, UniProt P22455).
T2 construct: FGFR4's cytoplasmic domain [460-802 (terminal) amino acids]; purchased Carna 08-136
Nature of the experiment: FGFR4 kinase activity inhibition assay (LanthaScreen TR-FRET). The conditions noted are these: FGFR4 kinase, TR-FRET; read-out: IC50 (nM) FGFR4. As to the method: as §1, §2, §3
According to the same method as that in the FGFR1 kinase activity inhibition assay, the inhibitory activities against FGFR2, FGFR3 and FGFR4 were tested using FGFR2's cytoplasmic domain [399-821 (terminal) amino acids] (Carna: 08-134), FGFR3's cytoplasmic domain [436-806 (terminal) amino acids] (Carna: 08-135) and FGFR4's cytoplasmic domain [460-802 (terminal) amino acids] (Carna: 08-136), respectively. Table 1 reports the kinase activity inhibition results and selectivity towards FGFR3 of each compound.

In the next experiment the target is T3, FGFR1 (Homo sapiens, UniProt P11362).
T3 construct: cytoplasmic domain [398-822 (terminal) amino acids]; purchased Carna 08-133
In words: FGFR1 kinase activity inhibition assay (LanthaScreen TR-FRET). The conditions noted are these: FGFR1 kinase, TR-FRET; read-out: IC50 (nM) FGFR1. The essentials: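 Emission ratio 520 nm/495 nm by TR-FRET after stopping reaction with 10 mM EDTA and 60 min incubation at 22°C. Inhibition normalized between no-enzyme (min) and DMSO (max) controls, then fitted to a four-parameter curve (Top, Bottom, HillSlope).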

A further experiment has as its target T4, FGFR3 (Homo sapiens, UniProt P22607).
T4 construct: FGFR3's cytoplasmic domain [436-806 (terminal) amino acids]; purchased Carna 08-135
Nature of the experiment: FGFR3 kinase activity inhibition assay (LanthaScreen TR-FRET). The conditions noted are these: for IC50: FGFR3 kinase, TR-FRET, read-out: IC50 (nM) FGFR3; for Selectivity (X) FGFR1/FGFR3: ratio of IC50 FGFR1/FGFR3, selectivity towards FGFR3; for Selectivity (X) FGFR2/FGFR3: ratio of IC50 FGFR2/FGFR3, selectivity towards FGFR3; for Selectivity (X) FGFR4/FGFR3: ratio of IC50 FGFR4/FGFR3, selectivity towards FGFR3. The method, boiled down: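 Read-out is TR-FRET, with the 520 nm/495 nm emission ratio normalised to DMSO (max) and enzyme-free (min) controls. Enzyme was the FGFR3 cytoplasmic domain, residues 436-806. EDTA (10 mM) stopped the reaction, followed by 60 min at 22 °C before reading.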

T3 sequence (P11362 398-822): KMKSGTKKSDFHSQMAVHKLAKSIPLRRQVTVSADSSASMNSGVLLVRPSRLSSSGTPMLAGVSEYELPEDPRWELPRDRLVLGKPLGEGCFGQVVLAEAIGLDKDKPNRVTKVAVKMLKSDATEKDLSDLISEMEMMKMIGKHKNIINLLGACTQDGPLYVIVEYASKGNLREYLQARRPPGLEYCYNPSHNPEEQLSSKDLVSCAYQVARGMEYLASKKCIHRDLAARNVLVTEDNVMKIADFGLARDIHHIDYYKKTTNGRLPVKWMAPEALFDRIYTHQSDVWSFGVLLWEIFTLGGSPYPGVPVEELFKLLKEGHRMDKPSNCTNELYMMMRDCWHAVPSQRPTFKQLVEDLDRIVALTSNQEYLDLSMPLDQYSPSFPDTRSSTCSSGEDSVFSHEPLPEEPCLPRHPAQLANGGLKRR
T2 sequence (P22455 460-802): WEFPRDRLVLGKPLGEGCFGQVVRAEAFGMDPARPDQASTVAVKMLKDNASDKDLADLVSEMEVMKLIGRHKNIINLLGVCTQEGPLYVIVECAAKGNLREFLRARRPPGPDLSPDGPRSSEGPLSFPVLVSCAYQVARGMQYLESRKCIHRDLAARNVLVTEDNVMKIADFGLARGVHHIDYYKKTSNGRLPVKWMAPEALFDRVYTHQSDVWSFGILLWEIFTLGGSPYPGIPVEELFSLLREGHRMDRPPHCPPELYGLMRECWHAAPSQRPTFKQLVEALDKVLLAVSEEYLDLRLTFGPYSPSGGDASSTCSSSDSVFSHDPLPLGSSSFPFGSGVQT
T4 sequence (P22607 436-806): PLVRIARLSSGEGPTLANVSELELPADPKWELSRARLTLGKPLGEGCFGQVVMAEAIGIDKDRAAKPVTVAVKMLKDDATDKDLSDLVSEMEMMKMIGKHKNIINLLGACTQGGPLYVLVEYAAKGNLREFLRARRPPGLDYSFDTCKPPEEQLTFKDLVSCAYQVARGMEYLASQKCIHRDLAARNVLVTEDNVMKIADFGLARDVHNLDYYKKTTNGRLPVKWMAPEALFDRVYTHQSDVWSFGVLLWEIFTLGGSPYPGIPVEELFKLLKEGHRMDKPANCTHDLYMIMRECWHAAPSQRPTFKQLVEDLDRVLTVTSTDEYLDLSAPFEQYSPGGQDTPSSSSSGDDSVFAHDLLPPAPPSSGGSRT
T1 sequence (P21802 399-821): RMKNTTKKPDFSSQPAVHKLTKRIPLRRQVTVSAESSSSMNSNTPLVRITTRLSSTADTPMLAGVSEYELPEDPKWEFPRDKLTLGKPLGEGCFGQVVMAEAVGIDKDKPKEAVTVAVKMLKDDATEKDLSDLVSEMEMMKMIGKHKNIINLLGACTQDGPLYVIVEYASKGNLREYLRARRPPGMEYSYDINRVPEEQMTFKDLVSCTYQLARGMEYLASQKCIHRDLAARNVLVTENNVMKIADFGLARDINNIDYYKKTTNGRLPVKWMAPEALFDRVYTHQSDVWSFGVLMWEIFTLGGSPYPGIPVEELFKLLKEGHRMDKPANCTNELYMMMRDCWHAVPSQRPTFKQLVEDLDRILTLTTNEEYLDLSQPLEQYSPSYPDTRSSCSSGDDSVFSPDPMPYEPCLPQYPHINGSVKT

Turning to `Cc1cc(O[C@H](C)c2c(Cl)cncc2Cl)cc2c(-c3cnn(C)c3)n[nH]c12` [Example 2, (R)-5-(1-(3,5-dichloropyridin-4-yl)ethoxy)-7-methyl-3-(1-methyl-1H-pyrazol-4-yl)-1H-indazole], the IC50 (in general, the midpoint of a concentration-inhibition curve) at FGFR2 is 10 to 100 nM. Besides, on FGFR4, the IC50 is greater than 100 nM. Further, the IC50 at FGFR1 is greater than 100 nM. Further, at FGFR3, the half-inhibitory concentration (IC50) lay in the range of 1 to 10 nM, the “Selectivity (X) FGFR1/FGFR3” value is “B (B represents 20 ≤ multiple X<50)”, the “Selectivity (X) FGFR2/FGFR3” value is “A (A represents 1 ≤ multiple X<20)” and the “Selectivity (X) FGFR4/FGFR3” value is listed as “B (B represents 20 ≤ multiple X<50)”.

Regarding `C[C@@H](Oc1cc(F)c2[nH]nc(-c3cnn(C)c3)c2c1)c1c(Cl)cncc1Cl` [Example 5, (R)-5-(1-(3,5-dichloropyridin-4-yl)ethoxy)-7-fluoro-3-(1-methyl-1H-pyrazol-4-yl)-1H-indazole], the IC50 at FGFR2 was less than 1 nM; at FGFR4 it was 1 to 10 nM; on FGFR1 it was 1 to 10 nM; at FGFR3, less than 1 nM. The “Selectivity (X) FGFR1/FGFR3” value at FGFR3 is reported as “A (A represents 1 ≤ multiple X<20)”. In addition, on FGFR3, the “Selectivity (X) FGFR2/FGFR3” value is “A (A represents 1 ≤ multiple X<20)”. Besides, on FGFR3, the “Selectivity (X) FGFR4/FGFR3” value is given as “B (B represents 20 ≤ multiple X<50)”.

For the compound `C[C@@H](Oc1cc(C2CC2)c2[nH]nc(-c3cnn(C)c3)c2c1)c1c(Cl)cncc1Cl` [Example 7, (R)-7-cyclopropyl-5-(1-(3,5-dichloropyridin-4-yl)ethoxy)-3-(1-methyl-1H-pyrazol-4-yl)-1H-indazole], the IC50 at FGFR2 is 10 to 100 nM; at FGFR4, greater than 100 nM; on FGFR1, greater than 100 nM; on FGFR3 it was 1 to 10 nM. In addition, the “Selectivity (X) FGFR1/FGFR3” value at FGFR3 is recorded as “B (B represents 20 ≤ multiple X<50)”. Also, the “Selectivity (X) FGFR2/FGFR3” value at FGFR3 is given as “A (A represents 1 ≤ multiple X<20)”. Moreover, on FGFR3, the “Selectivity (X) FGFR4/FGFR3” value was “B (B represents 20 ≤ multiple X<50)”.

On to `C[C@@H](Oc1cc(F)c2[nH]nc(-c3cnn(CCS(C)(=O)=O)c3)c2c1)c1c(Cl)cncc1Cl` [Example 11, (R)-5-(1-(3,5-dichloropyridin-4-yl)ethoxy)-7-fluoro-3-(1-(2-(methylsulfonyl)ethyl)-1H-pyrazol-4-yl)-1H-indazole], for which the half-maximal inhibitory concentration (IC50) at FGFR2 is 1 to 10 nM. Also, on FGFR4, the IC50 was in the range of 10 to 100 nM. For the same compound, on FGFR1, the IC50 is 10 to 100 nM. Besides, on FGFR3, the IC50 lay within 1 to 10 nM, the “Selectivity (X) FGFR1/FGFR3” value is given as “A (A represents 1 ≤ multiple X<20)”, the “Selectivity (X) FGFR2/FGFR3” value is reported as “A (A represents 1 ≤ multiple X<20)” and the “Selectivity (X) FGFR4/FGFR3” value was “A (A represents 1 ≤ multiple X<20)”.

For `C[C@@H](Oc1cc(F)c2[nH]nc(-c3cnn(CC4CC4)c3)c2c1)c1c(Cl)cncc1Cl` [Example 14, (R)-3-(1-(cyclopropylmethyl)-1H-pyrazol-4-yl)-5-(1-(3,5-dichloropyridin-4-yl)ethoxy)-7-fluoro-1H-indazole], the IC50 at FGFR2 lay within 1 to 10 nM. Moreover, the concentration for half-maximal inhibition (IC50) at FGFR4 is 10 to 100 nM. Further, at FGFR1, the half-maximal inhibitory concentration (IC50) lay within 10 to 100 nM. Further, at FGFR3, the IC50 was 1 to 10 nM, the “Selectivity (X) FGFR1/FGFR3” value was “A (A represents 1 ≤ multiple X<20)”, the “Selectivity (X) FGFR2/FGFR3” value is listed as “A (A represents 1 ≤ multiple X<20)” and the “Selectivity (X) FGFR4/FGFR3” value is “A (A represents 1 ≤ multiple X<20)”.

For the compound `C[C@@H](Oc1cc(F)c2[nH]nc(-c3cnn(CCN(C)C)c3)c2c1)c1c(Cl)cncc1Cl` [Example 15, (R)-2-(4-(5-(1-(3,5-dichloropyridin-4-yl)ethoxy)-7-fluoro-1H-indazol-3-yl)-1H-pyrazol-1-yl)-N,N-dimethylethan-1-amine], the 50% inhibitory concentration (IC50) was 1 to 10 nM at FGFR2, greater than 100 nM at FGFR4, 10 to 100 nM on FGFR1 and 1 to 10 nM at FGFR3. For the same compound, the “Selectivity (X) FGFR1/FGFR3” value on FGFR3 was “A (A represents 1 ≤ multiple X<20)”. In addition, the “Selectivity (X) FGFR2/FGFR3” value at FGFR3 was “A (A represents 1 ≤ multiple X<20)”. Further, the “Selectivity (X) FGFR4/FGFR3” value on FGFR3 was “C (C represents 50 ≤ multiple X<100)”.

In the case of `C[C@@H](Oc1cc(F)c2[nH]nc(-c3cnn(CCCN(C)C)c3)c2c1)c1c(Cl)cncc1Cl` [Example 17, (R)-3-(4-(5-(1-(3,5-dichloropyridin-4-yl)ethoxy)-7-fluoro-1H-indazol-3-yl)-1H-pyrazol-1-yl)-N,N-dimethylpropan-1-amine], the half-maximal inhibitory concentration (IC50) on FGFR2 is less than 1 nM. In addition, at FGFR4, the half-maximal inhibitory concentration (IC50) was greater than 100 nM. The IC50 on FGFR1 was in the range of 1 to 10 nM. Further, on FGFR3, the half-maximal inhibitory concentration (IC50) is less than 1 nM, the “Selectivity (X) FGFR1/FGFR3” value was “A (A represents 1 ≤ multiple X<20)”, the “Selectivity (X) FGFR2/FGFR3” value is reported as “A (A represents 1 ≤ multiple X<20)” and the “Selectivity (X) FGFR4/FGFR3” value is given as “D (D represents 100 ≤ multiple X)”.

Turning to `C[C@@H](Oc1cc(F)c2[nH]nc(-c3cnn(CCN4CCCCC4)c3)c2c1)c1c(Cl)cncc1Cl` [Example 23, (R)-5-(1-(3,5-dichloropyridin-4-yl)ethoxy)-7-fluoro-3-(1-(2-(piperidin-1-yl)ethyl)-1H-pyrazol-4-yl)-1H-indazole], the IC50 at FGFR2 is 1 to 10 nM; on FGFR4, greater than 100 nM; on FGFR1, 10 to 100 nM; at FGFR3, 1 to 10 nM. The “Selectivity (X) FGFR1/FGFR3” value at FGFR3 is given as “B (B represents 20 ≤ multiple X<50)”. Besides, the “Selectivity (X) FGFR2/FGFR3” value at FGFR3 is reported as “A (A represents 1 ≤ multiple X<20)”. Moreover, the “Selectivity (X) FGFR4/FGFR3” value at FGFR3 was “D (D represents 100 ≤ multiple X)”.

As to `C[C@@H](Oc1cc(F)c2[nH]nc(-c3cnn(CCN4CCS(=O)(=O)CC4)c3)c2c1)c1c(Cl)cncc1Cl` [Example 24, (R)-4-(2-(4-(5-(1-(3,5-dichloropyridin-4-yl)ethoxy)-7-fluoro-1H-indazol-3-yl)-1H-pyrazol-1-yl)ethyl)thiomo rpholine 1,1-dioxide], the IC50 was 1 to 10 nM at FGFR2, 10 to 100 nM at FGFR4, 10 to 100 nM on FGFR1 and less than 1 nM on FGFR3. For the same compound, the “Selectivity (X) FGFR1/FGFR3” value at FGFR3 is on record as “A (A represents 1 ≤ multiple X<20)”. The “Selectivity (X) FGFR2/FGFR3” value on FGFR3 was “A (A represents 1 ≤ multiple X<20)”. On FGFR3, the “Selectivity (X) FGFR4/FGFR3” value is “C (C represents 50 ≤ multiple X<100)”.

On to `Cc1cc(O[C@H](C)c2c(Cl)cncc2Cl)cc2c(-c3cnn(CCN4CCOCC4)c3)n[nH]c12` [Example 27, (R)-4-(2-(4-(5-(1-(3,5-dichloropyridin-4-yl)ethoxy)-7-methyl-1H-indazol-3-yl)-1H-pyrazol-1-yl)ethyl)morpholine], for which the half-inhibitory concentration (IC50) at FGFR2 fell in the range of 10 to 100 nM. Moreover, the IC50 at FGFR4 is greater than 100 nM. Besides, the IC50 on FGFR1 was greater than 100 nM. Besides, on FGFR3, the IC50 fell in the range of 1 to 10 nM, the “Selectivity (X) FGFR1/FGFR3” value is on record as “B (B represents 20 ≤ multiple X<50)”, the “Selectivity (X) FGFR2/FGFR3” value was “A (A represents 1 ≤ multiple X<20)” and the “Selectivity (X) FGFR4/FGFR3” value is on record as “C (C represents 50 ≤ multiple X<100)”.

With `CC(Oc1ccc2[nH]nc(-c3cnn(CCCS(C)(=N)=O)c3)c2c1)c1cc(F)cc2nccnc12` (stereo not drawn) [Example 185], the concentration for half-maximal inhibition (IC50) at FGFR4 was in the range of 10 to 100 nM. In addition, the 50% inhibitory concentration (IC50) on FGFR1 was 10 to 100 nM. At FGFR3, the half-inhibitory concentration (IC50) was less than 1 nM, the “Selectivity (X) FGFR1/FGFR3” value is reported as “B (B represents 20 ≤ multiple X<50)” and the “Selectivity (X) FGFR4/FGFR3” value is listed as “B (B represents 20 ≤ multiple X<50)”.
